Data reported in patent US20230116602A1, “MCL1 INHIBITORS AND USES THEREOF” (California Institute of Technology, priority 2019, published 2023).

How the values were obtained:
[1] = tested on: drug-resistant cell lines of Table 3; test: Cell line growth retardation assay, resistant cohort; format: cell-based, Human; conditions: Homo sapiens, 144 h; arithmetic mean of IC50s over the resistant cohort of Table 3, 6 days growth; read-out: AvgRes IC50
Protocol: (§1) Cells were seeded at densities of 1,000-5,000 cells per well in 48-well tissue culture plates. After a 24 h rest period, cells were treated with compound at 10 μM, 1 μM, […], 0.08 μM, 0.016 μM, and 0.0032 μM. A group of cells were treated with the vehicle in which the compound was prepared and served as a control. Prior to treatment, cells were counted and this count was used as a baseline for the calculation of growth inhibition. The cells were grown in the presence of compounds for 6 days and were counted on day 6. All cell counting was performed using a Synentec Cellavista plate imager. Growth inhibition was calculated as a ratio of cell population doublings in the presence of compound versus the absence of compound. […] IC50 values for each compound were calculated by fitting curves to data points from each dose-response assay using the Proc NLIN function in SAS for Windows version 9.2 (SAS Institute, Inc.).
(§2) Human cancer cell lines were grouped as “sensitive” or “resistant” to MCL1 inhibition based on whether their growth was retarded by AMG-176 (i.e., (1′S,11R,12S,14E,16S,16aR,18aR)-6′-Chloro-3′,4′,12,13,16,16a,17,18,18a,19-decahydro-16-methoxy-11,12-dimethyl-,Spiro[5,7-etheno-1H,11H-cyclobut[i][1,4]oxazepino[3,4-f][1,2,7]thiadiazacyclohexadecine-2(3H),1′(2′H)-naphthalen]-8(9H)-one 10,10-dioxide) or MIK665 (i.e., (R)-2-((5-(3-chloro-2-methyl-4-(2-(4-methylpiperazin-1-yl)ethoxy)phenyl)-6-(4-fluorophenyl)thieno[2,3-d]pyrimidin-4-yl)oxy)-3-(2-((2-(2-methoxyphenyl)pyrimidin-4-yl)methoxy)phenyl)propanoic acid) (data not shown; see Table 3). These sensitive and resistant cohorts were interrogated for response to each compound, and IC50S were calculated for each cell line using the same technique described above. Average IC50S for the sensitive (“AvgSen IC50”) and resistant (“AvgRes IC50”) cohorts were calculated as arithmetic means of the group, and fold differences (“Fold Diff”) between the resistant and sensitive cohorts were calculated by diving the average IC50 for the resistant cohort by the average IC50 for the sensitive cohort. “A” represents an IC50 of 1 μM or less, “B” represents an IC50 of greater than 1 μM to 5 μM, “C” represents an IC50 of greater than 5 μM, “+” represents a fold difference of 10 or more, and “−” represents a fold difference less than 10.

MCL1 = MCL1 (Homo sapiens, UniProt Q07820); test: MCL1 affinity assay (competition binding, qPCR readout); conditions: recombinant MCL1, 11-point 3-fold dilution series
Protocol: Recombinant MCL1, BCL2 and BCXL proteins were prepared in either an E. coli host derived from the BL21 strain or in HEK-293 cells. The recombinant proteins were subsequently tagged with DNA for qPCR detection. Streptavidin-coated magnetic beads were treated for 30 minutes at room temperature with the respective biotinylated peptide ligands for each recombinant protein to generate affinity resins for the assays. The liganded beads were blocked with excess biotin and washed with blocking buffer (SeaBlock (Pierce), 1% BSA, 0.05% Tween 20, 1 mM DTT) to remove unbound ligand and to reduce nonspecific binding. Binding reactions were assembled by combining recombinant protein, liganded affinity beads, and test compounds in 1× binding buffer (20% SeaBlock, 0.17×PBS, 0.05% Tween 20, 6 mM DTT). Test compounds were prepared as 111X stocks in 100% DMSO. The compounds were then diluted directly into the assays such that the final concentration of DMSO was 0.9%. The assay plates were incubated at room temperature with shaking for 1 hour and the affinity beads were washed with wash buffer (1×PBS, 0.05% Tween 20). The beads were then re-suspended in elution buffer (1×PBS, 0.05% Tween 20, 0.5 μM non-biotinylated affinity ligand) and incubated at room temperature with shaking for 30 minutes. The recombinant protein concentration in the eluates was measured by qPCR. Kds were determined using an 11-point 3-fold compound dilution series with three DMSO control points.

[2] = tested on: drug-sensitive cell lines of Table 3; test: Cell line growth retardation assay, sensitive cohort; format: cell-based, Human; conditions: for IC50: Homo sapiens, 144 h, arithmetic mean of IC50s over the sensitive cohort of Table 3, 6 days growth, read-out: AvgSen IC50; for Fold Diff: average IC50 of resistant cohort divided by average IC50 of sensitive cohort
Protocol: as §1, §2

Sequence of MCL1 (Q07820 whole entry): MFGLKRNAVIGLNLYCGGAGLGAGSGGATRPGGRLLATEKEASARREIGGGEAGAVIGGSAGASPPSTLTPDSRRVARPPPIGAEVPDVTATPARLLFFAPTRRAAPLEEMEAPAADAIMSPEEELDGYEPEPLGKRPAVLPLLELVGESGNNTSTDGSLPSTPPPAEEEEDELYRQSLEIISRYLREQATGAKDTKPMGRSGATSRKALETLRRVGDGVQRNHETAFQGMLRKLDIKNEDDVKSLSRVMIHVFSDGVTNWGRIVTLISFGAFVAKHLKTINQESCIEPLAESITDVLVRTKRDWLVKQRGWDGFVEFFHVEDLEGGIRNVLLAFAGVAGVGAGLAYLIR

Kd (MCL1) | SMILES | IC50 [1] | IC50 [2] | Fold Diff [2]
≤ 0.1 µM | COc1cccc(-c2ncc3snc(O[C@H](Cc4ccccc4OCc4ccnc(-c5cc(F)ccc5OC)n4)C(=O)O)c3c2-c2ccc(OCCN3CCN(C)CC3)c(Cl)c2C)c1 (atropisomer, axis not shown) [Compound 67] | > 5 µM | ≤ 1 µM | + (“+” represents a fold difference of 10 or more)
≤ 0.1 µM | COc1ccccc1-c1nccc(COc2ccccc2C[C@@H](Oc2nsc3cnc(-c4ccc(F)c(Cl)c4)c(-c4ccc(OCCN5CCN(C)CC5)c(Cl)c4C)c23)C(=O)O)n1 (atropisomer, axis not shown) [Compound 88] | > 5 µM | ≤ 1 µM | + (“+” represents a fold difference of 10 or more)
– | Cc1c(-c2c(C3CCC3)ncc3snc(O[C@H](Cc4ccccc4OCc4ccnc(-c5ccc(N6CCOCC6)cc5)n4)C(=O)O)c23)ccc(OCCN2CCN(C)CC2)c1Cl (atropisomer, axis not shown) [Compound 123] | > 5 µM | ≤ 1 µM | + (“+” represents a fold difference of 10 or more)
> 1.5 µM | Cc1c(-c2cc(-n3c(=O)n(C)c4cc(Cl)ccc43)cc3snc(O[C@H](Cc4ccccc4OCc4ccnn4CC(F)(F)F)C(=O)O)c23)ccc(OCCN2CCN(C)CC2)c1Cl [Compound 99] | > 5 µM | > 5 µM | − (“−” represents a fold difference less than 10)
0.101 to 0.5 µM | Cc1c(-c2c(C3CCC3)ncc3snc(O[C@H](Cc4ccccc4OCc4ccnc(C5CCC5)n4)C(=O)O)c23)ccc(OCCN2CCN(C)CC2)c1Cl (atropisomer, axis not shown) [Compound 104] | > 5 µM | 1 to 5 µM | − (“−” represents a fold difference less than 10)
≤ 0.1 µM | COc1ccccc1-c1nccc(COc2ccccc2C[C@@H](Oc2nsc3cnc(-c4cc(F)c(F)c(F)c4)c(-c4ccc(OCCN5CCN(C)CC5)c(Cl)c4C)c23)C(=O)O)n1 (atropisomer, axis not shown) [Compound 84] | > 5 µM | ≤ 1 µM | + (“+” represents a fold difference of 10 or more)
> 1.5 µM | Cc1c(-c2c(C3CCC3)ncc3snc(O[C@H](Cc4ccccc4OCc4ccnc(-c5ccncc5)n4)C(=O)O)c23)ccc(OCCN2CCN(C)CC2)c1Cl (atropisomer, axis not shown) [Compound 74] | > 5 µM | > 5 µM | − (“−” represents a fold difference less than 10)
0.101 to 0.5 µM | Cc1cc(-c2nccc(COc3ccccc3C[C@@H](Oc3nsc4cnc(C5CCC5)c(-c5ccc(OCCN6CCN(C)CC6)c(Cl)c5C)c34)C(=O)O)n2)ccc1S(=O)(=O)N1CCCC1 (atropisomer, axis not shown) [Compound 115] | > 5 µM | 1 to 5 µM | − (“−” represents a fold difference less than 10)
0.501 to 1.5 µM | COc1cccc(-c2ncc3snc(O[C@H](Cc4ccccc4OCc4ccnc(N5CCCC(C)(C)C5)n4)C(=O)O)c3c2-c2ccc(OCCN3CCN(C)CC3)c(Cl)c2C)c1 (atropisomer, axis not shown) [Compound 62] | > 5 µM | 1 to 5 µM | − (“−” represents a fold difference less than 10)
≤ 0.1 µM | COc1cccc(-c2ncc3snc(O[C@H](Cc4ccccc4OCc4ccnc(-c5ccccc5OC(F)F)n4)C(=O)O)c3c2-c2ccc(OCCN3CCN(C)CC3)c(Cl)c2C)c1 (atropisomer, axis not shown) [Compound 66] | > 5 µM | ≤ 1 µM | + (“+” represents a fold difference of 10 or more)
> 1.5 µM | Cc1c(Cl)c2cc(Cl)cnc2n1-c1cc(CC2CCC2)c2c(O[C@H](Cc3ccccc3OCc3ccnn3CC(F)(F)F)C(=O)O)nsc2c1 [Compound 101] | > 5 µM | > 5 µM | − (“−” represents a fold difference less than 10)
– | Cc1c(-c2c(C3CCC3)ncc3snc(O[C@H](Cc4ccccc4OCc4ccnc(-c5ccc(C(=O)N6CCC6)cc5)n4)C(=O)O)c23)ccc(OCCN2CCN(C)CC2)c1Cl (atropisomer, axis not shown) [Compound 122] | > 5 µM | ≤ 1 µM | + (“+” represents a fold difference of 10 or more)
≤ 0.1 µM | Cc1cc(C#N)ccc1-c1nccc(COc2ccccc2C[C@@H](Oc2nsc3cnc(C4CCC4)c(-c4ccc(OCCN5CCN(C)CC5)c(Cl)c4C)c23)C(=O)O)n1 (atropisomer, axis not shown) [Compound 116] | > 5 µM | ≤ 1 µM | + (“+” represents a fold difference of 10 or more)
≤ 0.1 µM | COc1ccccc1-c1nccc(COc2ccccc2C[C@@H](Oc2nsc3cnc(C4CC4)c(-c4ccc(OCCN(C)C)c(Cl)c4C)c23)C(=O)O)n1 (atropisomer, axis not shown) [Compound 56] | > 5 µM | ≤ 1 µM | + (“+” represents a fold difference of 10 or more)
≤ 0.1 µM | Cc1c(-c2c(C3CCC3)ncc3snc(O[C@H](Cc4ccccc4OCc4ccnc(C5CCOCC5)n4)C(=O)O)c23)ccc(OCCN2CCN(C)CC2)c1Cl (atropisomer, axis not shown) [Compound 111] | > 5 µM | ≤ 1 µM | + (“+” represents a fold difference of 10 or more)
≤ 0.1 µM | Cc1c(-c2c(C3CCC3)ncc3snc(O[C@H](Cc4ccccc4OCc4ccnc(-c5cccc(N6CCOCC6)c5)n4)C(=O)O)c23)ccc(OCCN2CCN(C)CC2)c1Cl (atropisomer, axis not shown) [Compound 112] | > 5 µM | ≤ 1 µM | + (“+” represents a fold difference of 10 or more)
– | COc1ccccc1-c1nccc(COc2ccccc2C[C@@H](Oc2nsc3cnc(C4CCC4)c(-c4ccc(OCCN5CCN(C)CC5)c(Cl)c4C)c23)C(=O)CCc2oc(=O)oc2C)n1 (atropisomer, axis not shown) [Compound 120] | > 5 µM | ≤ 1 µM | + (“+” represents a fold difference of 10 or more)
– | Cc1c(-c2c(C3CCC3)ncc3snc(O[C@H](Cc4ccccc4OCc4ccnc(-c5cccc(-c6ccn(C)n6)c5)n4)C(=O)O)c23)ccc(OCCN2CCN(C)CC2)c1Cl (atropisomer, axis not shown) [Compound 121] | > 5 µM | ≤ 1 µM | + (“+” represents a fold difference of 10 or more)
– | COc1cccc(-c2ncc3snc(O[C@H](Cc4ccccc4OCc4ccnc(-c5ccccc5OC)n4)C(=O)O)c3c2-c2ccc(OCC3CCCN3C)c(Cl)c2C)c1 (stereo partly shown) [Compound 48] | > 5 µM | ≤ 1 µM | + (“+” represents a fold difference of 10 or more)
> 1.5 µM | Cc1c(-c2c(-c3ccc4sccc4c3)ncc3snc(O[C@H](Cc4ccccc4OCc4ccnn4CC(F)(F)F)C(=O)O)c23)ccc(OCCN2CCN(C)CC2)c1Cl (atropisomer, axis not shown) [Compound 8] | – | – | –
> 1.5 µM | CCOC(=O)[C@@H](Cc1ccccc1OCc1ccnc(-c2ccccc2OC)n1)Oc1nsc2cnc(C3CCC3)c(-c3ccc(OCCN4CCN(C)CC4)c(Cl)c3C)c12 [Compound 103] | – | – | –
